Source: PubChem BioAssay (NCI)
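Dose response: 5 concentrations. Exposure: 48 h. Format: 96-well plates. Endpoint: linear interpolation; highest concentration if not reached. GI50 = concentration required for 50% inhibition of growth. Definition used: TGI = concentration required for complete inhibition of growth.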

How the values were obtained:
Experiment in all cases: inhibition of tumour cell growth, NCI panel, 48 h; in the data active means GI50 below about 0.43 µM; inactive means the rest
786-0 renal = system: 786-0 renal
A498 renal = system: A498 renal
A549 NSCLC = system: A549 NSCLC
ACHN renal = system: ACHN renal
BT-549 breast = system: BT-549 breast
CAKI-1 renal = system: CAKI-1 renal
CCRF-CEM leukemia = system: CCRF-CEM leukemia
COLO 205 colon = system: COLO 205 colon
DU-145 prostate = system: DU-145 prostate
EKVX NSCLC = system: EKVX NSCLC
HCC-2998 colon = system: HCC-2998 colon
HCT-116 colon = system: HCT-116 colon
HCT-15 colon = system: HCT-15 colon
HL-60(TB) leukemia = system: HL-60(TB) leukemia
HOP-62 NSCLC = system: HOP-62 NSCLC
HOP-92 NSCLC = system: HOP-92 NSCLC
HS 578T breast = system: HS 578T breast
HT29 colon = system: HT29 colon
K-562 leukemia = system: K-562 leukemia
KM12 colon = system: KM12 colon
LOX IMVI melanoma = system: LOX IMVI melanoma
M14 melanoma = system: M14 melanoma
MALME-3M melanoma = system: MALME-3M melanoma
MCF7 breast = system: MCF7 breast
MDA-MB-231 breast = system: MDA-MB-231 breast
MDA-MB-435 = system: MDA-MB-435
MOLT-4 leukemia = system: MOLT-4 leukemia
NCI-H226 lung = system: NCI-H226 lung
NCI-H23 lung = system: NCI-H23 lung
NCI-H460 lung = system: NCI-H460 lung
NCI-H522 lung = system: NCI-H522 lung
NCI/ADR-RES ovarian = system: NCI/ADR-RES ovarian
OVCAR-4 ovarian = system: OVCAR-4 ovarian
OVCAR-5 ovarian = system: OVCAR-5 ovarian
OVCAR-8 ovarian = system: OVCAR-8 ovarian
PC-3 prostate = system: PC-3 prostate
RPMI-8226 leukemia = system: RPMI-8226 leukemia
RXF 393 renal = system: RXF 393 renal
SF-268 CNS = system: SF-268 CNS
SF-295 CNS = system: SF-295 CNS
SF-539 CNS = system: SF-539 CNS
SK-MEL-2 melanoma = system: SK-MEL-2 melanoma
SK-MEL-28 melanoma = system: SK-MEL-28 melanoma
SK-MEL-5 melanoma = system: SK-MEL-5 melanoma
SK-OV-3 ovarian = system: SK-OV-3 ovarian
SN12C renal = system: SN12C renal
SNB-19 CNS = system: SNB-19 CNS
SNB-75 CNS = system: SNB-75 CNS
SR leukemia = system: SR leukemia
SW-620 colon = system: SW-620 colon
T-47D breast = system: T-47D breast
TK-10 renal = system: TK-10 renal
U251 CNS = system: U251 CNS
UACC-257 melanoma = system: UACC-257 melanoma
UACC-62 melanoma = system: UACC-62 melanoma
UO-31 renal = system: UO-31 renal

CC(=O)O[C@H]([C@H](OC(C)=O)[C@H](C)OC(C)=O)[C@@H](/C=C/[C@H]1CC=CC(=O)O1)OC(C)=O
89.8 µM: TGI (RPMI-8226 leukemia)
inactive: GI50 (786-0 renal) 97.3 µM | GI50 (A498 renal) 41.4 µM | GI50 (A549 NSCLC) > 100 µM | GI50 (ACHN renal) > 100 µM | GI50 (BT-549 breast) 21.9 µM | GI50 (CAKI-1 renal) 79.7 µM | GI50 (CCRF-CEM leukemia) 36.7 µM | GI50 (COLO 205 colon) 37.1 µM | GI50 (DU-145 prostate) 38.2 µM | GI50 (EKVX NSCLC) > 100 µM | GI50 (HCC-2998 colon) 24.1 µM | GI50 (HCT-116 colon) 33 µM | GI50 (HCT-15 colon) 44.9 µM | GI50 (HL-60(TB) leukemia) 59.4 µM | GI50 (HOP-62 NSCLC) 48.5 µM | GI50 (HOP-92 NSCLC) 23.5 µM | GI50 (HS 578T breast) 65.5 µM | GI50 (HT29 colon) 55.8 µM | GI50 (K-562 leukemia) > 100 µM | GI50 (KM12 colon) > 100 µM | GI50 (LOX IMVI melanoma) 55.1 µM | GI50 (M14 melanoma) 67.3 µM | GI50 (MALME-3M melanoma) > 100 µM | GI50 (MCF7 breast) 39 µM | GI50 (MDA-MB-231 breast) > 100 µM | GI50 (MDA-MB-435) 41.2 µM | GI50 (MOLT-4 leukemia) 72.7 µM | GI50 (NCI-H226 lung) > 100 µM | GI50 (NCI-H23 lung) 66.6 µM | GI50 (NCI-H460 lung) 59.4 µM | GI50 (NCI-H522 lung) 15.6 µM | GI50 (NCI/ADR-RES ovarian) > 100 µM | GI50 (OVCAR-4 ovarian) 34.7 µM | GI50 (OVCAR-5 ovarian) > 100 µM | GI50 (OVCAR-8 ovarian) 51.2 µM | GI50 (PC-3 prostate) 17.6 µM | GI50 (RPMI-8226 leukemia) 26.3 µM | GI50 (RXF 393 renal) > 100 µM | GI50 (SF-268 CNS) 41.6 µM | GI50 (SF-295 CNS) 20.6 µM | GI50 (SF-539 CNS) 37.2 µM | GI50 (SK-MEL-2 melanoma) 36.4 µM | GI50 (SK-MEL-28 melanoma) 39.2 µM | GI50 (SK-MEL-5 melanoma) 33.2 µM | GI50 (SK-OV-3 ovarian) > 100 µM | GI50 (SN12C renal) 83.3 µM | GI50 (SNB-19 CNS) 80.5 µM | GI50 (SNB-75 CNS) 22.2 µM | GI50 (SR leukemia) 73.7 µM | GI50 (SW-620 colon) 37.6 µM | GI50 (T-47D breast) 38.3 µM | GI50 (TK-10 renal) > 100 µM | GI50 (U251 CNS) > 100 µM | GI50 (UACC-257 melanoma) > 100 µM | GI50 (UACC-62 melanoma) > 100 µM | GI50 (UO-31 renal) > 100 µM
62.4 µM: TGI (HOP-92 NSCLC)
> 100 µM: TGI (786-0 renal) | TGI (A498 renal) | TGI (A549 NSCLC) | TGI (ACHN renal) | TGI (CAKI-1 renal) | TGI (CCRF-CEM leukemia) | TGI (COLO 205 colon) | TGI (DU-145 prostate) | TGI (EKVX NSCLC) | TGI (HCT-116 colon) | TGI (HCT-15 colon) | TGI (HL-60(TB) leukemia) | TGI (HOP-62 NSCLC) | TGI (HS 578T breast) | TGI (HT29 colon) | TGI (K-562 leukemia) | TGI (KM12 colon) | TGI (LOX IMVI melanoma) | TGI (M14 melanoma) | TGI (MALME-3M melanoma) | TGI (MCF7 breast) | TGI (MDA-MB-231 breast) | TGI (MDA-MB-435) | TGI (MOLT-4 leukemia) | TGI (NCI-H226 lung) | TGI (NCI-H23 lung) | TGI (NCI-H460 lung) | TGI (NCI/ADR-RES ovarian) | TGI (OVCAR-4 ovarian) | TGI (OVCAR-5 ovarian) | TGI (OVCAR-8 ovarian) | TGI (PC-3 prostate) | TGI (RXF 393 renal) | TGI (SF-268 CNS) | TGI (SF-539 CNS) | TGI (SK-MEL-2 melanoma) | TGI (SK-MEL-28 melanoma) | TGI (SK-MEL-5 melanoma) | TGI (SK-OV-3 ovarian) | TGI (SN12C renal) | TGI (SNB-19 CNS) | TGI (SR leukemia) | TGI (SW-620 colon) | TGI (T-47D breast) | TGI (TK-10 renal) | TGI (U251 CNS) | TGI (UACC-257 melanoma) | TGI (UACC-62 melanoma) | TGI (UO-31 renal)
36.2 µM: TGI (NCI-H522 lung)
61.7 µM: TGI (SNB-75 CNS)
68.9 µM: TGI (HCC-2998 colon)
72.6 µM: TGI (BT-549 breast)
59.8 µM: TGI (SF-295 CNS)
